Source: ChEMBL document CHEMBL5365440, “Design, synthesis, and structure-activity relationship of a bicyclic HBV capsid assembly modulator chemotype leading to the identification of clinical candidate AB-506” (Bioorg Med Chem Lett, 2023)
Values after ≈ are worked out from the molar mass of the structure shown.

Assays:
[1] = Microsomal stability in mouse liver microsomes assessed as intrinsic clearance; format: ADME, Microsome; conditions: read-out: CLH
[2] = Aqueous solubility of the compound in PBS buffer at pH 7.4; format: physicochemical
Hepatitis B virus [3] = assay: Antiviral activity against Hepatitis B virus infected in human HepDE19 cells assessed as reduction in viral replication incubated for 3 to 7 days by PCR analysis; format: functional, organism-based
[4] = Microsomal stability in human liver microsomes assessed as intrinsic clearance; format: ADME, Microsome; conditions: read-out: CLH
[5] = Cytotoxicity against human HepDE19 cells incubated for 48 hrs by cell titer-glo luminescent based cell viability assay; format: toxicity
[6] = AUC (0-infinity) in CD-1 mouse at 10 mg/kg,po; format: ADME, organism-based; set-up: dose 10 mg/kg, route po; conditions: in vivo
[7] = Cmax in CD-1 mouse at 10 mg/kg,po; format: ADME, organism-based; set-up: dose 10 mg/kg, route po; conditions: in vivo
[8] = Half life in CD-1 mouse at 2 mg/kg,iv; format: ADME, organism-based; conditions: in vivo
Hepatitis B virus [9] = assay: Antiviral activity against Hepatitis B virus Genotype D infected in NOD.CB17-PrkdcSCID/J mouse model assessed as reduction in serum HBV DNA level at po dosed for 7 consecutive days; format: functional, organism-based
Hepatitis B virus [10] = assay: Antiviral activity against Hepatitis B virus Genotype D infected in NOD.CB17-PrkdcSCID/J mouse model assessed as log reduction in serum HBV DNA level at 100 mg/kg,po dosed for 7 consecutive days by qPCR analysis; format: functional
Hepatitis B virus [11] = assay: Antiviral activity against Hepatitis B virus Genotype D infected in NOD.CB17-PrkdcSCID/J mouse model assessed as log reduction in serum HBV DNA level at 30 mg/kg,po dosed for 7 consecutive days by qPCR analysis; format: functional
[12] = Clearance in CD-1 mouse at 2 mg/kg,iv; format: ADME, organism-based; conditions: in vivo
Hepatitis B virus [13] = assay: Antiviral activity against Hepatitis B virus Genotype D infected in NOD.CB17-PrkdcSCID/J mouse model assessed as log reduction in serum HBV DNA level at 10 mg/kg,po dosed for 7 consecutive days by qPCR analysis; format: functional
Hepatitis B virus [14] = assay: Antiviral activity against Hepatitis B virus infected in mouse AML12 cells assessed as reduction in viral replication incubated for 2 days by SYBR green based PCR analysis; format: functional, organism-based; conditions: AML12, 48 h

Work on `COCCCOC(=O)N[C@H]1CCc2c(C(=O)Nc3ccc(F)c(Cl)c3)ccc(F)c21` yielded a microsomal CLint [1] of 55 µL/min/mg, a solubility [2] of 3 µM (≈ 1.32 µg/mL) and an EC50 (Hepatitis B virus [3]) of 580 nM. It also gave a microsomal CLint [4] of 10 µL/min/mg.
Compound `Cn1ccnc1COC(=O)N[C@H]1CCc2c(C(=O)Nc3ccc(F)c(Cl)c3)ccc(F)c21` has a microsomal CLint [1] of 96 µL/min/mg, a solubility [2] of less than 1.6 µM and an EC50 (Hepatitis B virus [3]) of 280 nM. The microsomal CLint [4] was 104 µL/min/mg.
`COC(=O)N[C@H]1CCOc2c(C(=O)Nc3ccc(F)c(F)c3)ccc(F)c21` showed a CC50 at 48 h [5] greater than 25000 nM and an EC50 (Hepatitis B virus [3]) of 570 nM.
Work on `COC(=O)N[C@H]1CCc2c(C(=O)Nc3ccc(F)c(Cl)c3)ccc(F)c21` yielded a microsomal CLint [1] of 9.2 µL/min/mg, a solubility [2] of less than 1.6 µM and an EC50 (Hepatitis B virus [3]) of 170 nM. It also gave a microsomal CLint [4] of 3.5 µL/min/mg.
Compound `O=C(N[C@H]1CCc2c(C(=O)Nc3ccc(F)c(Cl)c3)ccc(F)c21)OCc1ccccn1` has a microsomal CLint [1] of 36 µL/min/mg, an AUC(0-inf) [6] of 7230 ng·h/mL and a solubility [2] of less than 1.6 µM. The EC50 (Hepatitis B virus [3]) was 95 nM, the Cmax [7] was 695 ng/mL and the half-life [8] was 1.2 h. The microsomal CLint [4] was 11 µL/min/mg, the Activity (Hepatitis B virus [9]) was “Dose-Dependent Effect” and the Activity (Hepatitis B virus [10]) was 1.6 log10CFU. It also gave an Activity (Hepatitis B virus [11]) of 0.8 log10CFU and a clearance [12] of 28 mL/min/kg.
`O=C(N[C@H]1CCc2c(C(=O)Nc3ccc(F)c(Cl)c3)ccc(F)c21)OCCO` showed a microsomal CLint [1] of 3 µL/min/mg, a solubility [2] of 6.4 µM (≈ 2.63 µg/mL) and an EC50 (Hepatitis B virus [3]) of 200 nM. The microsomal CLint [4] was 1 µL/min/mg.
In the case of `CC(=O)NCCOC(=O)N[C@H]1CCc2c(C(=O)Nc3ccc(F)c(Cl)c3)ccc(F)c21`, the microsomal CLint [1] is reported as 17 µL/min/mg, the solubility [2] is reported as 43.4 µM (≈ 19.6 µg/mL) and the EC50 (Hepatitis B virus [3]) is reported as 190 nM. For the same compound, the microsomal CLint [4] was 133 µL/min/mg.
Compound `Cn1ccc(COC(=O)N[C@H]2CCc3c(C(=O)Nc4ccc(F)c(Cl)c4)ccc(F)c32)n1` has a microsomal CLint [1] of 23 µL/min/mg, an AUC(0-inf) [6] of 5160 ng·h/mL and a solubility [2] of 4.8 µM (≈ 2.21 µg/mL). For the same compound, the EC50 (Hepatitis B virus [3]) was 47 nM, the Cmax [7] was 913 ng/mL and the half-life [8] was 3.5 h. For the same compound, the Activity (Hepatitis B virus [13]) was 0.5 log10CFU, the microsomal CLint [4] was 7.9 µL/min/mg and the Activity (Hepatitis B virus [9]) was “Dose-Dependent Effect”. It also gave an Activity (Hepatitis B virus [10]) of 2.5 log10CFU, an Activity (Hepatitis B virus [11]) of 1.4 log10CFU and a clearance [12] of 19 mL/min/kg.
For `COC(=O)N[C@H]1CCc2c(C(=O)Nc3ccc(F)c(F)c3)cccc21`, the microsomal CLint [1] was 9.2 µL/min/mg, the EC50 (Hepatitis B virus [3]) was 590 nM and the microsomal CLint [4] was 0.6 µL/min/mg.
In the case of `Cn1nccc1COC(=O)N[C@H]1CCc2c(C(=O)Nc3ccc(F)c(Cl)c3)ccc(F)c21`, the microsomal CLint [1] is reported as 25 µL/min/mg, the solubility [2] is reported as 9.1 µM (≈ 4.19 µg/mL) and the EC50 (Hepatitis B virus [3]) is reported as 100 nM. The microsomal CLint [4] was 38 µL/min/mg.
Work on `COC(=O)N[C@H]1CCOc2c(C(=O)Nc3ccc(F)c(F)c3)cccc21` yielded a CC50 at 48 h [5] greater than 25000 nM, an EC50 (Hepatitis B virus [3]) of 2250 nM and an EC50 (Hepatitis B virus [14]) of 710 nM.
`O=C(N[C@H]1CCc2c(C(=O)Nc3ccc(F)c(Cl)c3)ccc(F)c21)OCc1ncccn1` showed a microsomal CLint [1] of 17 µL/min/mg, a solubility [2] of 4.5 µM (≈ 2.06 µg/mL) and an EC50 (Hepatitis B virus [3]) of 120 nM. For the same compound, the microsomal CLint [4] was 3.5 µL/min/mg.
With `COC(=O)N[C@H]1CCCOc2c(C(=O)Nc3ccc(F)c(F)c3)cccc21` the EC50 (Hepatitis B virus [3]) was greater than 25000 nM.
Work on `COC(=O)N[C@H]1CCOc2c(C(=O)Nc3ccc(F)c(Cl)c3)ccc(F)c21` yielded a CC50 at 48 h [5] greater than 25000 nM and an EC50 (Hepatitis B virus [3]) of 200 nM.
`COCCOC(=O)N[C@H]1CCc2c(C(=O)Nc3ccc(F)c(Cl)c3)ccc(F)c21` gave a microsomal CLint [1] of 8.1 µL/min/mg, a solubility [2] of 2.8 µM (≈ 1.19 µg/mL) and an EC50 (Hepatitis B virus [3]) of 190 nM. It also gave a microsomal CLint [4] of 8.2 µL/min/mg.
Compound `O=C(N[C@H]1CCc2c(C(=O)Nc3ccc(F)c(Cl)c3)ccc(F)c21)OCc1nc[nH]n1` has a microsomal CLint [1] of 9 µL/min/mg, a solubility [2] of 6.1 µM (≈ 2.73 µg/mL) and an EC50 (Hepatitis B virus [3]) of 79 nM. The microsomal CLint [4] was 0.2 µL/min/mg.
